One block for each compound: values may come before it.
What was measured:
[1] = target: Bcl-2 family proteins; conditions: Oltersdorf et al., 2005; read-out: binding constant obtained earlier; cited from earlier work
[2] = system: GST-Bcl-2 fusion proteins; experiment: FPA competition assay with FITC-Bid BH3 peptide; assay type: binding, human; conditions: 100 nM GST-Bcl-2 fusion proteins, 5 nM FITC-Bid BH3
Description: 100 nM of GST-Bcl-2 fusion proteins were incubated with various concentrations of EGCG or control compound ECG (“C”) for 2 min in PBS buffer in 50 μL. Then, 5 nM FITC-conjugated-Bid BH3 peptide was added, bringing final volume to 100 μL and final DMSO concentration to 1%. Fluorescence polarization was measured after 20 minutes.
C1.3 FPA competition assay for Bcl-2-binding compounds. The green tea compound […] has been reported to bind Bcl-2 and Bcl-XL (Leone et al., 2003). The ability of EGCG to compete with fluorochrome-labeled BH3 peptides was confirmed by FPA. […] This compound therefore can serve as a positive control when performing high throughput screens of any compound library, including the NIH library.

[3] = target: T1, GST-Rab7 (Homo sapiens, UniProt P51149); experiment: Competition of nucleotides with Bodipy-FL-GTP for bead-bound GST-Rab7; assay type: binding; conditions: 10 nM GST-Rab7 preloaded, 1 μM GTP*
T1 construct: made in house; host or cells: bacteria
T1 sequence (P51149 whole entry): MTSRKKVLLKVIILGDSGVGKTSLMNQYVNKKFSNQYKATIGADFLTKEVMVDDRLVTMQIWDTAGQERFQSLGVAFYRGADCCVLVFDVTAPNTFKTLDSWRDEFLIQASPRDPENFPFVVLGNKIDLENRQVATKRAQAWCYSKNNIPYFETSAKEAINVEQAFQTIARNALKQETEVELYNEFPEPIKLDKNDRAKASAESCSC
Description: The signal to background levels are compatible with homogeneous analysis of the binding of the fluorescent GTP analog. Moreover, the assay is conservative with respect to protein, using <1 pmol of protein per well.

[4] = target: GST-GFP (Schistosoma japonicum, UniProt P08515); experiment: biochemical
GST-GFP, sequence (P08515 2-218, added parts left off): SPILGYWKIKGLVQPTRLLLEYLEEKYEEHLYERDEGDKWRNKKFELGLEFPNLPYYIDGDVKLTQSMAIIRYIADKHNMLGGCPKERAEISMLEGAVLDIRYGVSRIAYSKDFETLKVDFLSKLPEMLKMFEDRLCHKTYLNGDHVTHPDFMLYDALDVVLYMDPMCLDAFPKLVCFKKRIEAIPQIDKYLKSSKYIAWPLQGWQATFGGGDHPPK
Description: The standard assay for monitoring the concentration of free glutathione was performed in ten microliters of HPSM buffer with 0.01% dodecyl maltoside added to reduce nonspecific binding. Typically, two microliters of 50 nM GST-GFP and two microliters of bead suspension containing 10,000 beads (as determined using a hemacytometer) were added to six microliters of buffer, with or without some competitor, giving 10 nM GST-GFP in the suspension. The ten microliter assays were gently shaken in wells of a 96 V-shaped well plate (Corning Costar #2897) on a vortex mixer in a cold room for two hours.

[5] = target: T1, GST-Rab7; experiment: Bodipy-FL-GTP binding to and dissociation from bead-bound GST-Rab7
Description: A fluorescent GTP-binding assay capable of being monitored by flow cytometry was developed and optimized using GST-Rab7 protein and Bodipy-FL-GTP (GTP*). […] Values are usually expressed as 1000 fluorescence equivalents of fluorescein in free solution (kMESF).
The binding of purified GST-Rab7 to bGSH was measured by using increasing concentrations (1.0-316.0 nM) of GST-Rab7 with a fixed amount of bGSH (−10,000 beads/reaction and excess (1.0 µM) GTP*).
In order to measure the rate of GTP* dissociation from bead-bound Rab7, bGSH were pre-loaded with 100 nM GST-Rab7 and incubated with 1 µM GTP* at 37° C. for 2 h. Dissociation of GTP* from the beads was then measured at 37° C. both for simple dilution with buffer as well as upon addition of 1000-fold higher (1 mM) non-fluorescent GTP (FIG. 6). The calculated half-time was 72.7s. The rate of dissociation in the presence of 1 mM unlabeled GTP alone was 9.6×10^−3s^−1.

[6] = system: Ras superfamily members; experiment: Multiplex Bodipy-FL-GTP binding and GTP competition
Description: The Bodipy-FL-GTP binding assay established using wild-type GST-Rab7 was adapted for multiplex, high-throughput assays by Sklar and colleagues.
384-well microplates are configured with 64 control wells (columns 1 and 2 unblocked, and columns 23 and 24 with 1 mM GTP), leaving 320 wells to which test compounds are added as per the Roadmap compound plates supplied. Compounds from the molecular library and GTP controls are added in 5 μl, Bodipy-FL-GTP is added in 5 μl, and GST-G protein-coated beads are added in 5 μl. […] The bead sets are coated by mixing each “address level of red fluorescence” bead type individually in the presence of ˜60 nM GST-small G protein for two hours with 5,000 beads per microliter. The sets are then combined together, centrifuged, and resuspended just before addition to the assay plate. The beads are kept in suspension during the competitive assay using rotation at 22° C. for 2 hours, then the plate is read at room temperature at a cytometer.

Structure (SMILES): CN(C)CC[C@H](CSc1ccccc1)Nc1ccc(S(=O)(=O)NC(=O)c2ccc(N3CCN(Cc4ccccc4-c4ccc(Cl)cc4)CC3)cc2)cc1[N+](=O)[O-] [ABT737]
Ki [1]: < 1 nM

Structure (SMILES): O=C(O[C@@H]1Cc2c(O)cc(O)cc2O[C@@H]1c1cc(O)c(O)c(O)c1)c1cc(O)c(O)c(O)c1 [ECGC, epigallecatechin]
competition with FITC-Bid BH3 peptide [2]: binds to all six anti-apoptotic members of the Bcl-2-family, to variable extents

EC50 [3]: 560 nM
Structure (SMILES): Nc1nc2c(ncn2[C@@H]2O[C@H](COP(=O)(O)OP(=O)(O)O)[C@@H](O)[C@H]2O)c(=O)[nH]1 [GDP]

Structure (SMILES): N[C@@H](CCC(=O)N[C@@H](CS)C(=O)NCC(=O)O)C(=O)O [GSH, γ-glu-cys-gly]
EC50 [4]: 39 µM | Ki [4]: 35 µM

rate of dissociation ([5]; 1 mM GTP alone, 37° C.): 0.0096 s⁻¹ | Kd ([5]; GTP* binding to GST-Rab7): 94 nM | specific binding affinities ([6]; fourplex): within a factor of two of each other | EC50s ([6]; sixplex, 25 or 50 nM Bodipy-FL-GTP): within the same order of magnitude
Structure (SMILES): Cc1cc(C)n2c1C=C1C=CC(CCC(=O)NCCNC(=O)OC3C(COP(=O)(O)OP(=O)(O)OP(=O)(O)O)OC(n4cnc5c(=O)[nH]c(N)nc54)C3O)=[N+]1[B-]2(F)F (stereo not drawn) [GTP*]
